Assay results published in PubChem BioAssay AID248 (DTP/NCI, 2004).
Several values for one entry are separate records, joined by “and”; a condition that tells them apart may be missing. Equal values may be shown once. Toxic doses and inconclusive results are not listed. No stated cut-off is given here; in the data, active means T/C of 150% or more; inactive means T/C below 125%.

System: L1210 leukemia ip in BDF1 mice, survival T/C
Assay: NCI In Vivo Anticancer Drug Screen. Data for tumor model L1210 Leukemia (intraperitoneal) in B6D2F1 (BDF1) mice
Conditions: endpoint: mean survival time, higher = longer survival
Method in brief: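 Ratio derived from survival: compound-dosed mice over vehicle-dosed mice, all bearing a transplantable tumor.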

[1] = dose: 100.0 mg/kg/injection, schedule: Q01DX001 (ip), vehicle: carboxymethylcellulose (CMC)
[2] = dose: 200.0 mg/kg/injection, schedule: Q01DX001 (ip), vehicle: carboxymethylcellulose (CMC)
[3] = dose: 400.0 mg/kg/injection, schedule: Q01DX001 (ip), vehicle: carboxymethylcellulose (CMC)
[4] = dose: 100.0 mg/kg/injection, schedule: Q01DX001 (sc), vehicle: steriod suspending solution
[5] = dose: 200.0 mg/kg/injection, schedule: Q01DX001 (sc), vehicle: steriod suspending solution
[6] = dose: 400.0 mg/kg/injection, schedule: Q01DX001 (sc), vehicle: steriod suspending solution
[7] = dose: 100.0 mg/kg/injection, schedule: Q01DX009 (ip), vehicle: saline with Tween-80
[8] = dose: 200.0 mg/kg/injection, schedule: Q01DX009 (ip), vehicle: saline with Tween-80
[9] = dose: 400.0 mg/kg/injection, schedule: Q01DX009 (ip), vehicle: saline with Tween-80
[10] = dose: 100.0 mg/kg/injection, schedule: Q04DX002 (ip), vehicle: Klucel (hydroxypropylcellulose) (HPC)
[11] = dose: 200.0 mg/kg/injection, schedule: Q04DX002 (ip), vehicle: Klucel (hydroxypropylcellulose) (HPC)
[12] = dose: 400.0 mg/kg/injection, schedule: Q04DX002 (ip), vehicle: Klucel (hydroxypropylcellulose) (HPC)
[13] = dose: 100.0 mg/kg/injection, schedule: Q04DX003 (ip), vehicle: saline with Tween-80
[14] = dose: 200.0 mg/kg/injection, schedule: Q04DX003 (ip), vehicle: saline with Tween-80
[15] = dose: 400.0 mg/kg/injection, schedule: Q04DX003 (ip), vehicle: saline with Tween-80
[16] = dose: 50.0 mg/kg/injection, schedule: Q01DX009 (ip), vehicle: Klucel (hydroxypropylcellulose) (HPC)
[17] = dose: 100.0 mg/kg/injection, schedule: Q01DX009 (ip), vehicle: Klucel (hydroxypropylcellulose) (HPC)
[18] = dose: 100.0 mg/kg/injection, schedule: Q04DX003 (ip), vehicle: Klucel (hydroxypropylcellulose) (HPC)
[19] = dose: 200.0 mg/kg/injection, schedule: Q01DX009 (ip), vehicle: Klucel (hydroxypropylcellulose) (HPC)
[20] = dose: 200.0 mg/kg/injection, schedule: Q04DX003 (ip), vehicle: Klucel (hydroxypropylcellulose) (HPC)
[21] = dose: 400.0 mg/kg/injection, schedule: Q01DX009 (ip), vehicle: Klucel (hydroxypropylcellulose) (HPC)

Measured: T/C

OC(OCC(COC(O)C(Br)Br)(COC(O)C(Br)Br)COC(O)C(Br)Br)C(Br)Br (stereo not given)
inactive: dose: 50.0 mg/kg/injection, schedule: Q01DX001 (ip), vehicle: carboxymethylcellulose (CMC) 101 % of control | [1] 95 % of control | [2] 92 % of control | [3] 95 % of control

C[C@]12CCC(=O)C=C1CC[C@@H]1[C@@H]2C(=O)C[C@]2(C)C3=CC(=O)O[C@H]3C[C@@H]12
inactive: dose: 25.0 mg/kg/injection, schedule: Q01DX015 (sc), vehicle: steriod suspending solution 117 % of control | dose: 50.0 mg/kg/injection, schedule: Q01DX015 (sc), vehicle: steriod suspending solution 102 % of control | [4] 94 % of control | dose: 100.0 mg/kg/injection, schedule: Q01DX015 (sc), vehicle: steriod suspending solution 102 % of control | [5] 103 % of control | dose: 200.0 mg/kg/injection, schedule: Q01DX015 (sc), vehicle: steriod suspending solution 91 % of control | [6] 103 % of control | dose: 400.0 mg/kg/injection, schedule: Q01DX015 (sc), vehicle: steriod suspending solution 97 % of control | dose: 600.0 mg/kg/injection, schedule: Q01DX015 (sc), vehicle: steriod suspending solution 95 % of control

Cc1ccc(C)n1Cc1ccccc1
inactive: dose: 100.0 mg/kg/injection, schedule: Q04DX003 (ip), vehicle: other 98 % of control | dose: 200.0 mg/kg/injection, schedule: Q04DX003 (ip), vehicle: other 98 % of control | dose: 400.0 mg/kg/injection, schedule: Q04DX003 (ip), vehicle: other 101 % of control

CNC(=S)n1ncnc1NC=O
inactive: dose: 100.0 mg/kg/injection, schedule: Q04DX003 (ip), vehicle: acetone 98 % of control

Cc1ccc(C(O)(c2ccccc2)c2ccccc2C(=O)Nc2ccccc2)cc1 (stereo not given)
inactive: [7] 95 % of control | [8] 90 % of control | [9] 92 % of control

Nc1ccc(S(=O)(=O)c2ccc(N)cn2)cc1
inactive: dose: 50.0 mg/kg/injection, schedule: Q04DX002 (ip), vehicle: Klucel (hydroxypropylcellulose) (HPC) 89 % of control | [10] 98 % of control and 107 % of control | [11] 96 % of control | [12] 96 % of control and 102 % of control

COc1cc(N(CCCl)CCCl)ccc1NC(=O)c1ccccc1
inactive: dose: 100.0 mg/kg/injection, schedule: Q01DX001 (ip), vehicle: other 98 % of control | dose: 200.0 mg/kg/injection, schedule: Q01DX001 (ip), vehicle: other 98 % of control | dose: 400.0 mg/kg/injection, schedule: Q01DX001 (ip), vehicle: other 109 % of control

Cc1ccc(NC(=O)N(CCCl)N=O)c(NC(=O)N(CCCl)N=O)c1
inactive: dose: 30.0 mg/kg/injection, schedule: Q01DX001 (ip), vehicle: carboxymethylcellulose (CMC) 117 % of control | dose: 33.0 mg/kg/injection, schedule: Q01DX001 (ip), vehicle: carboxymethylcellulose (CMC) 107 % of control | dose: 33.0 mg/kg/injection, schedule: Q01DX009 (ip), vehicle: carboxymethylcellulose (CMC) 108 % of control | dose: 50.0 mg/kg/injection, schedule: Q01DX009 (ip), vehicle: carboxymethylcellulose (CMC) 88 % of control | dose: 75.0 mg/kg/injection, schedule: Q01DX001 (ip), vehicle: carboxymethylcellulose (CMC) 113 % of control | dose: 112.0 mg/kg/injection, schedule: Q01DX001 (ip), vehicle: carboxymethylcellulose (CMC) 96 % of control

O=C(Nc1ccc([N+](=O)[O-])cc1Cl)N(CCO)C1CCCCC1
inactive: [7] 96 % of control | [13] 102 % of control | [8] 106 % of control | [14] 101 % of control | [9] 116 % of control | [15] 90 % of control

C=CCOC(=O)Nc1cccc(OC(=O)NC(C)(C)C)c1
inactive: [13] 105 % of control | [14] 99 % of control | [15] 98 % of control

CC12CC(C(O)(C(F)(F)F)C(F)(F)F)C(=O)C=C1CCC1C2CCC2(C)C(C(=O)CC(O)(C(F)(F)F)C(F)(F)F)CCC12 (stereo not given)
inactive: [4] 103 % of control | [5] 103 % of control | [6] 101 % of control

CCOC(=O)c1cnc(=S)[nH]c1N
inactive: [16] 102 % of control | dose: 50.0 mg/kg/injection, schedule: Q04DX003 (ip), vehicle: Klucel (hydroxypropylcellulose) (HPC) 95 % of control | [17] 96 % of control | [18] 95 % of control | [19] 93 % of control | [20] 97 % of control

O=S(=O)(N/C(=C(\NS(=O)(=O)c1ccccc1)c1ccccc1)c1ccccc1)c1ccccc1
inactive: [18] 97 % of control | [20] 95 % of control | dose: 400.0 mg/kg/injection, schedule: Q04DX003 (ip), vehicle: Klucel (hydroxypropylcellulose) (HPC) 92 % of control

S=C(N=Nc1ccccc1)NNc1ccccc1
inactive: dose: 18.8 mg/kg/injection, schedule: Q04DX003 (ip), vehicle: saline with Tween-80 90 % of control | dose: 18.9 mg/kg/injection, schedule: Q01DX009 (ip), vehicle: saline with Tween-80 87 % of control | dose: 30.0 mg/kg/injection, schedule: Q01DX Z (ip), vehicle: carboxymethylcellulose (CMC) 92 % of control | dose: 37.5 mg/kg/injection, schedule: Q01DX009 (ip), vehicle: saline with Tween-80 92 % of control | dose: 37.5 mg/kg/injection, schedule: Q01DX Z (ip), vehicle: carboxymethylcellulose (CMC) 97 % of control | dose: 37.5 mg/kg/injection, schedule: Q04DX003 (ip), vehicle: saline with Tween-80 87 % of control | dose: 45.0 mg/kg/injection, schedule: Q01DX Z (ip), vehicle: carboxymethylcellulose (CMC) 97 % of control | dose: 75.0 mg/kg/injection, schedule: Q01DX009 (ip), vehicle: saline with Tween-80 90 % of control | dose: 75.0 mg/kg/injection, schedule: Q01DX Z (ip), vehicle: carboxymethylcellulose (CMC) 92 % of control | dose: 75.0 mg/kg/injection, schedule: Q04DX003 (ip), vehicle: saline with Tween-80 92 % of control | dose: 150.0 mg/kg/injection, schedule: Q04DX003 (ip), vehicle: saline with Tween-80 88 % of control | [2] 101 % of control

CCN(CC)c1ccc(/C=C/C(=O)c2ccc(N(CC)CC)cc2)cc1
inactive: [17] 94 % of control | [19] 97 % of control | [21] 97 % of control

OCC(Cc1ccc(Cl)cc1)N1CCCCC1 (stereo not given)
inactive: [1] 96 % of control | [2] 100 % of control | [3] 89 % of control

CCOCC(=O)Cc1ccccc1
inactive: dose: 50.0 mg/kg/injection, schedule: Q01DX009 (ip), vehicle: saline with Tween-80 95 % of control | [7] 100 % of control | [8] 92 % of control

c1ccc(CSCc2ccccc2)cc1
inactive: [16] 97 % of control | [17] 105 % of control | [10] 105 % of control | [13] 96 % of control | [19] 102 % of control and 86 % of control | [11] 105 % of control | [14] 104 % of control | [21] 86 % of control | [12] 105 % of control | [15] 96 % of control
